# From patent publication US20230059136A1, “THE COMPOUNDS AND COMPOSITIONS FOR TREATING CONDITIONS ASSOCIATED WITH NLRP ACTIVITY” (Novartis AG, priority 2018, published 2023)
# pIC50: −log10 of the molar value.
# Tested on: IL-1β production in PMA-differentiated THP-1 cells
# Test: IL-1β production in PMA-differentiated THP-1 cells stimulated with gramicidin (hTHP-1 assay containing 2% fetal bovine serum)
# Assay type: cell-based, human
# Settings: Table B1; 2% fetal bovine serum; class symbols; read-out: hTHP-1 IC50 (Average IC50 of compounds in hTHP-1 assay)
# How it was run: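 IL-1β release was read by HTRF on supernatants of 50,000 PMA-primed (20 ng/ml, 16-18 h) THP-1 cells/well in 2% FBS medium. Cells saw compound for 1 h (11-point titration from 100 μM, 0.37% DMSO) before a 2 h gramicidin (5 μM) challenge.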
row,Structure (SMILES),pIC50
1,"CC(C)c1cc(-c2ccc3c(c2)OC(F)(F)O3)cc(C(C)C)c1CC(=O)N=S(N)(=O)c1ncc(C(C)(C)O)s1 (single isomer, unassigned) [Example 165, (S) or (R)-N-(amino(5-(2-hydroxypropan-2-yl)thiazol-2-yl)(oxo)-λ^6-sulfaneylidene)-2-(4-(2,2-difluorobenzo[d] [1,3]dioxol-5-yl)-2,6-diisopropylphenyl) acetamide]",5.30 to 6.00
2,"CC(C)c1cc(-c2ccc3c(c2)OC(F)(F)O3)cc(C(C)C)c1CC(=O)N=S(N)(=O)c1ncc(C(C)(C)O)s1 (single isomer, unassigned) [Example 166, (R) or (S)-N-(amino(5-(2-hydroxypropan-2-yl)thiazol-2-yl)(oxo)-λ^6-sulfaneylidene)-2-(4-(2,2-difluorobenzo[d] [1,3]dioxol-5-yl)-2,6-diisopropylphenyl) acetamide]",6.70 to 7.40
3,"Cc1ccc(-c2cc(C(C)C)c(CC(=O)N=S(N)(=O)c3ncc(C(C)(C)O)s3)c(C(C)C)c2)cc1C (single isomer, unassigned) [Example 167, (S) or (R)-N-(amino(5-(2-hydroxypropan-2-yl)thiazol-2-yl)(oxo)-λ^6-sulfaneylidene)-2-(3,5-diisopropyl-3′,4′-dimethyl-[1,1′-biphenyl]-4-yl)acetamide]",5.30 to 6.00
4,"Cc1ccc(-c2cc(C(C)C)c(CC(=O)N=S(N)(=O)c3ncc(C(C)(C)O)s3)c(C(C)C)c2)cc1C (single isomer, unassigned) [Example 168, (R) or (S)-N-(amino(5-(2-hydroxypropan-2-yl)thiazol-2-yl)(oxo)-λ^6-sulfaneylidene)-2-(3,5-diisopropyl-3′,4'-dimethyl-[1,1′-biphenyl]-4-yl)acetamide]",6.00 to 6.70
5,"CC(C)c1cc(-c2ccc(Cl)c(Cl)c2)cc(C(C)C)c1CC(=O)N=S(N)(=O)c1ncc(C(C)(C)O)s1 (single isomer, unassigned) [Example 169, (S) or (R)-N-(amino(5-(2-hydroxypropan-2-yl)thiazol-2-yl)(oxo)-λ^6-sulfaneylidene)-2-(3′,4′-dichloro-3,5-diisopropyl-[1,1′-biphenyl]-4-yl)acetamide]",5.30 to 6.00
6,"CC(C)c1cc(-c2ccc(Cl)c(Cl)c2)cc(C(C)C)c1CC(=O)N=S(N)(=O)c1ncc(C(C)(C)O)s1 (single isomer, unassigned) [Example 170, (R) or (S)-N-(amino(5-(2-hydroxypropan-2-yl)thiazol-2-yl)(oxo)-λ^6-sulfaneylidene)-2-(3′,4′-dichloro-3,5-diisopropyl-[1,1′-biphenyl]-4-yl)acetamide]",6.00 to 6.70
7,"CC(C)c1ccc(F)c(C(C)C)c1CC(=O)N=S(N)(=O)c1ccc(C(C)(C)O)s1 (single isomer, unassigned) [Example 175, (S) or (R)-N-(amino(5-(2-hydroxypropan-2-yl)thiophen-2-yl)(oxo)-λ^6-sulfaneylidene)-2-(3-fluoro-2,6-diisopropylphenyl) acetamide]",5.30 to 6.00
8,"CC(C)c1ccc(F)c(C(C)C)c1CC(=O)N=S(N)(=O)c1ccc(C(C)(C)O)s1 (single isomer, unassigned) [Example 176, (R) or (S)-N-(amino(5-(2-hydroxypropan-2-yl)thiophen-2-yl)(oxo)-λ^6-sulfaneylidene)-2-(3-fluoro-2,6-diisopropylphenyl) acetamide]",6.00 to 6.70
9,"CC(C)c1ccc(C#N)c(C(C)C)c1CC(=O)N=S(N)(=O)c1nc(C(C)(C)O)cs1 (single isomer, unassigned) [Example 179, (R) or (S)-N-(amino(4-(2-hydroxypropan-2-yl)thiazol-2-yl)(oxo)-λ^6-sulfaneylidene)-2-(3-cyano-2,6-diisopropylphenyl) acetamide]",6.00 to 6.70
10,"CC(C)c1ccc(C#N)c(C(C)C)c1CC(=O)N=S(N)(=O)c1nc(C(C)(C)O)cs1 (single isomer, unassigned) [Example 180, (S) or (R)-N-(amino(4-(2-hydroxypropan-2-yl)thiazol-2-yl)(oxo)-λ^6-sulfaneylidene)-2-(3-cyano-2,6-diisopropylphenyl) acetamide]",4.52 to 5.30
11,"CC(C)c1ccc(F)c(C(C)C)c1CC(=O)N=S(N)(=O)c1nc(C(C)(C)O)cs1 (single isomer, unassigned) [Example 181, (R) or (S)-N-(amino(4-(2-hydroxypropan-2-yl)thiazol-2-yl)(oxo)-λ^6-sulfaneylidene)-2-(3-fluoro-2,6-diisopropylphenyl) acetamide]",6.70 to 7.40
12,"CC(C)c1ccc(F)c(C(C)C)c1CC(=O)N=S(N)(=O)c1nc(C(C)(C)O)cs1 (single isomer, unassigned) [Example 182, (S) or (R)-N-(amino(4-(2-hydroxypropan-2-yl)thiazol-2-yl)(oxo)-λ^6-sulfaneylidene)-2-(3-fluoro-2,6-diisopropylphenyl) acetamide]",4.52 to 5.30
13,"COCc1cc(C(C)C)c(CC(=O)N=S(N)(=O)c2ncc(C(C)(C)O)s2)c(C(C)C)c1 (single isomer, unassigned) [Example 185, (R) or (S)-N-(amino(5-(2-hydroxypropan-2-yl)thiazol-2-yl)(oxo)-λ^6-sulfaneylidene)-2-(2,6-diisopropyl-4-(methoxymethyl)phenyl)acetamide]",6.70 to 7.40

# Continued, values first:
row,pIC50,Structure (SMILES)
1,6.70 to 7.40,"CC(C)c1ccc(F)c(C(C)C)c1CC(=O)N=S(N)(=O)c1cnc(C(C)(C)O)s1 (single isomer, unassigned) [Example 161, (R) or (S)-N-(amino(2-(2-hydroxypropan-2-yl)thiazol-5-yl)(oxo)-λ^6-sulfaneylidene)-2-(3-fluoro-2,6-diisopropylphenyl) acetamide]"
2,4.52 to 5.30,"CC(C)c1ccc(F)c(C(C)C)c1CC(=O)N=S(N)(=O)c1cnc(C(C)(C)O)s1 (single isomer, unassigned) [Example 162, (S) or (R)-N-(amino(2-(2-hydroxypropan-2-yl)thiazol-5-yl)(oxo)-λ^6-sulfaneylidene)-2-(3-fluoro-2,6-diisopropylphenyl) acetamide]"
3,6.70 to 7.40,"CC(C)c1cc(-c2ccc3ccccc3c2)cc(C(C)C)c1CC(=O)N=S(N)(=O)c1cnc(C(C)(C)O)s1 (single isomer, unassigned) [Example 163, (R) or (S)-N-(amino(2-(2-hydroxypropan-2-yl)thiazol-5-yl)(oxo)-λ^6-sulfaneylidene)-2-(2,6-diisopropyl-4-(naphthalen-2-yl)phenyl) acetamide]"
4,5.30 to 6.00,"CC(C)c1cc(-c2ccc3ccccc3c2)cc(C(C)C)c1CC(=O)N=S(N)(=O)c1cnc(C(C)(C)O)s1 (single isomer, unassigned) [Example 164, (S) or (R)-N-(amino(2-(2-hydroxypropan-2-yl)thiazol-5-yl)(oxo)-λ^6-sulfaneylidene)-2-(2,6-diisopropyl-4-(naphthalen-2-yl)phenyl) acetamide]"
5,6.00 to 6.70,"CC(C)c1cc(-c2ccc3c(c2)COCC3)cc(C(C)C)c1CC(=O)N=S(N)(=O)c1cnc(C(C)(C)O)s1 (single isomer, unassigned) [Example 171, (R) or (S)-N-(amino(2-(2-hydroxypropan-2-yl)thiazol-5-yl)(oxo)-λ^6-sulfaneylidene)-2-(4-(isochroman-7-yl)-2,6-diisopropylphenyl) acetamide]"
6,4.52 to 5.30,"CC(C)c1cc(-c2ccc3c(c2)COCC3)cc(C(C)C)c1CC(=O)N=S(N)(=O)c1cnc(C(C)(C)O)s1 (single isomer, unassigned) [Example 172, (S) or (R)-N-(amino(2-(2-hydroxypropan-2-yl)thiazol-5-yl)(oxo)-λ^6-sulfaneylidene)-2-(4-(isochroman-7-yl)-2,6-diisopropylphenyl) acetamide]"
7,6.00 to 6.70,"Cc1sc(S(N)(=O)=NC(=O)Cc2c(C(C)C)ccc(F)c2C(C)C)cc1C(C)(C)O (single isomer, unassigned) [Example 173, (R) or (S)-N-(amino(4-(2-hydroxypropan-2-yl)-5-methylthiophen-2-yl)(oxo)-λ^6-sulfaneylidene)-2-(3-fluoro-2,6-diisopropylphenyl) acetamide]"
8,4.52 to 5.30,"Cc1sc(S(N)(=O)=NC(=O)Cc2c(C(C)C)ccc(F)c2C(C)C)cc1C(C)(C)O (single isomer, unassigned) [Example 174, (S) or (R)-N-(amino(4-(2-hydroxypropan-2-yl)-5-methylthiophen-2-yl)(oxo)-λ^6-sulfaneylidene)-2-(3-fluoro-2,6-diisopropylphenyl) acetamide]"
9,6.70 to 7.40,"CC(C)c1cc(F)c(F)c(C(C)C)c1CC(=O)N=S(N)(=O)c1nc(C(C)(C)O)cs1 (single isomer, unassigned) [Example 177, (R) or (S)-N-(amino(4-(2-hydroxypropan-2-yl)thiazol-2-yl)(oxo)-λ^6-sulfaneylidene)-2-(3,4-difluoro-2,6-diisopropylphenyl) acetamide]"
10,5.30 to 6.00,"CC(C)c1cc(F)c(F)c(C(C)C)c1CC(=O)N=S(N)(=O)c1nc(C(C)(C)O)cs1 (single isomer, unassigned) [Example 178, (S) or (R)-N-(amino(4-(2-hydroxypropan-2-yl)thiazol-2-yl)(oxo)-λ^6-sulfaneylidene)-2-(3,4-difluoro-2,6-diisopropylphenyl) acetamide]"
11,6.00 to 6.70,"CC(C)c1cc2c(c(C(C)C)c1CC(=O)N=S(N)(=O)c1cnc(C(C)(C)O)s1)COC2 (single isomer, unassigned) [Example 183, (R) or (S)-N-(amino(2-(2-hydroxypropan-2-yl)thiazol-5-yl)(oxo)-λ^6-sulfaneylidene)-2-(4,6-diisopropyl-1,3-dihydro-isobenzofuran-5-yl)acetamide]"
12,4.52 to 5.30,"CC(C)c1cc2c(c(C(C)C)c1CC(=O)N=S(N)(=O)c1cnc(C(C)(C)O)s1)COC2 (single isomer, unassigned) [Example 184, (S) or (R)-N-(amino(2-(2-hydroxypropan-2-yl)thiazol-5-yl)(oxo)-λ^6-sulfaneylidene)-2-(4,6-diisopropyl-1,3-dihydro-isobenzofuran-5-yl)acetamide]"
